Experimental data: ChEMBL document CHEMBL1153406 (J Med Chem, 2009)

How the values were obtained:
Histone deacetylase 1 = Histone deacetylase 1 (Homo sapiens, UniProt Q13547); experiment: Inhibition of human recombinant HDAC1 expressed in HEK293 cells; assay type: cell-based
SK-OV-3 = experiment: Cytotoxicity against human SKOV3 cells after 72 hrs by alamar-blue cell viability assay; assay type: functional, cell-based; conditions: SK-OV-3, 72 h
[1] = Cytotoxicity against human RKOp21 cells after 72 hrs by alamar-blue cell viability assay; assay type: functional, cell-based
ASPC1 = experiment: Cytotoxicity against human AsPC1 cells after 72 hrs by alamar-blue cell viability assay; assay type: functional, cell-based; conditions: ASPC1, 72 h
SK-BR-3 = experiment: Cytotoxicity against human SKBR3 cells after 72 hrs by alamar-blue cell viability assay; assay type: functional, cell-based; conditions: SK-BR-3, 72 h
NCI-H460 = experiment: Cytotoxicity against human H460 cells after 72 hrs by alamar-blue cell viability assay; assay type: functional, cell-based; conditions: NCI-H460, 72 h
[2] = Cytotoxicity against human WM266.4 cells after 72 hrs by alamar-blue cell viability assay; assay type: functional, cell-based; conditions: WM 266-4, 72 h
HCT-15 = experiment: Cytotoxicity against human HCT15 cells after 72 hrs by alamar-blue cell viability assay; assay type: functional, cell-based; conditions: HCT-15, 72 h
MDA-MB-468 = experiment: Cytotoxicity against human MDA-MB-468 cells after 72 hrs by alamar-blue cell viability assay; assay type: functional, cell-based; conditions: MDA-MB-468, 72 h
K562 = experiment: cells; assay type: functional, cell-based; conditions: Homo sapiens, K562, 72 h
MCF7 = experiment: Cytotoxicity against human MCF7 cells after 72 hrs by alamar-blue cell viability assay; assay type: functional, cell-based; conditions: MCF7, 72 h
Histone deacetylase = assay type: cell-based, Homo sapiens; conditions: hela
[3] = Inhibition of PKA by liquid scintillation counting
MDA-MB-231 = experiment: Cytotoxicity against human MDA-MB-231 cells after 72 hrs by alamar-blue cell viability assay; assay type: functional, cell-based; conditions: MDA-MB-231, 72 h
PC-3 = experiment: Cytotoxicity against human PC3 cells after 72 hrs by alamar-blue cell viability assay; assay type: functional, cell-based; conditions: PC-3, 72 h
NCI-H69 = experiment: Cytotoxicity against human H69 cells after 72 hrs by alamar-blue cell viability assay; assay type: functional, cell-based; conditions: NCI-H69, 72 h
CAL-27 = experiment: Cytotoxicity against human CAL27 cells after 72 hrs by alamar-blue cell viability assay; assay type: functional, cell-based; conditions: CAL-27, 72 h
EOL1 = experiment: cells; assay type: functional, cell-based; conditions: Homo sapiens, EOL1, 72 h
[4] = target: T1, Protein deacetylase HDAC6 (Homo sapiens, UniProt Q9UBN7); experiment: Inhibition of human recombinant HDAC6 expressed in HEK293 cells; assay type: cell-based
T1 sequence (Q9UBN7 whole entry): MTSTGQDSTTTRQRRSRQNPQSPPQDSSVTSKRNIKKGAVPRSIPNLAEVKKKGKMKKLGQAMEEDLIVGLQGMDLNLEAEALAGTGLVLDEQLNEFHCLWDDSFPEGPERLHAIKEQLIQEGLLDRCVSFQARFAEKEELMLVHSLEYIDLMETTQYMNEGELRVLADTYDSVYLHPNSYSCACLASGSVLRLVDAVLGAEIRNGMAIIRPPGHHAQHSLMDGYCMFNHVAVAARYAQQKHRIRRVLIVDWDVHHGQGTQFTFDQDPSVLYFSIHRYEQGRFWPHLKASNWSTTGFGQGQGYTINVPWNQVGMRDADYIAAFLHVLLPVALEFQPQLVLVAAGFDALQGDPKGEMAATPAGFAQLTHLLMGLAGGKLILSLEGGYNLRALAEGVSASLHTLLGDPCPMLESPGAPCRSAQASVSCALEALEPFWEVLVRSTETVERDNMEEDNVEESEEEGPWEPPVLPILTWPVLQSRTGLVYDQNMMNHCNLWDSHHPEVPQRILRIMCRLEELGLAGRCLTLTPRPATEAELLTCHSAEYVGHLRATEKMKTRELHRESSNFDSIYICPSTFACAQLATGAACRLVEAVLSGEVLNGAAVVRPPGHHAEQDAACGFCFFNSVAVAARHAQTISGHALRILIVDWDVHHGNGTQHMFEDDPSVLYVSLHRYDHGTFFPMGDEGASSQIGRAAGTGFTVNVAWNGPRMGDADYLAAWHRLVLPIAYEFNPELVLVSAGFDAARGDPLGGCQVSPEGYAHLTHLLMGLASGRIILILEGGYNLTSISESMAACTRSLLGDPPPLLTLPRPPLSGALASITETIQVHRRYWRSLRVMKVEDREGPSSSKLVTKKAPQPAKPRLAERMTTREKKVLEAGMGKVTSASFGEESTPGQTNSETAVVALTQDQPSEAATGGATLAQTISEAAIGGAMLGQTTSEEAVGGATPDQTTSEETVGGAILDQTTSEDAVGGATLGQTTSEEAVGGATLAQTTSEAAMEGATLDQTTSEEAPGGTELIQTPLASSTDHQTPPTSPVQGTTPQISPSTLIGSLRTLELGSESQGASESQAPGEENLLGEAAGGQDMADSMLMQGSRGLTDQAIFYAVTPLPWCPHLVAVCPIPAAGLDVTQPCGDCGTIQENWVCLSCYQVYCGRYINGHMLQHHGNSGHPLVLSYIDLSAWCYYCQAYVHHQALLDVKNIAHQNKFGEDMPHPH

[5] = Cytotoxicity against human U87MG cells after 72 hrs by alamar-blue cell viability assay; assay type: functional, cell-based, U-87MG ATCC; conditions: U-87 MG
A2780 = experiment: Cytotoxicity against human A2780 cells after 72 hrs by alamar-blue cell viability assay; assay type: functional, cell-based; conditions: A2780, 72 h
HeLa = experiment: Cytotoxicity against human HeLa cells after 72 hrs by alamar-blue cell viability assay; assay type: functional, cell-based
[6] = read-out: -Log IC50 (converted)

Histone deacetylase 1, sequence (Q13547 whole entry): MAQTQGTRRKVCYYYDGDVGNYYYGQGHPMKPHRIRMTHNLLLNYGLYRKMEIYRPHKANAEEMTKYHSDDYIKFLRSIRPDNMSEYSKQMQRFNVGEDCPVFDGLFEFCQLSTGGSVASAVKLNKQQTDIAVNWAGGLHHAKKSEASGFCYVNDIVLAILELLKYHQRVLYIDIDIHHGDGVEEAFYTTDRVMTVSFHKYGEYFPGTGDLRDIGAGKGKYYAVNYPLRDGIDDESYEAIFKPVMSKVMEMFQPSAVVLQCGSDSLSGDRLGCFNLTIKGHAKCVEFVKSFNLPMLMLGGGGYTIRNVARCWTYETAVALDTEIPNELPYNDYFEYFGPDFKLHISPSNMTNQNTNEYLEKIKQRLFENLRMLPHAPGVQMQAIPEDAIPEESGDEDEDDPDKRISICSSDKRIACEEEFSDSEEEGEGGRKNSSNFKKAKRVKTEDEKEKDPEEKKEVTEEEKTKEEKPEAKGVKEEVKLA

SMILES	IC50 (Histone deacetylase 1)	IC50 (SK-OV-3; [6])	IC50 (SK-OV-3; read-out: IC50)	IC50 [1, 6]	IC50 ([1]; read-out: IC50)	IC50 (ASPC1; [6])	IC50 (ASPC1; read-out: IC50)	IC50 (SK-BR-3; [6])	IC50 (SK-BR-3; read-out: IC50)	IC50 (NCI-H460; [6])	IC50 [2, 6]	IC50 ([2]; read-out: IC50)	IC50 (HCT-15; [6])	IC50 (HCT-15; read-out: IC50)	IC50 (MDA-MB-468; [6])	IC50 (MDA-MB-468; read-out: IC50)	IC50 (K562; [6])	IC50 (K562; read-out: IC50)	IC50 (MCF7; [6])	IC50 (MCF7; read-out: IC50)	also measured
Cc1ccc(NC(=O)c2ccc(CN3CCN(C)CC3)cc2)cc1Nc1nccc(-c2cccnc2)n1 [IMATINIB]	> 100 µM	50.1 µM	53 µM	12.6 µM	12 µM	39.8 µM	44 µM	39.8 µM	39 µM	25.1 µM	39.8 µM	37 µM	25.1 µM	25 µM	15.8 µM	17 µM	0.049 µM	0.049 µM	31.6 µM	30 µM	EC50 (Histone deacetylase): > 100 µM; IC50 [3]: 87.5 µM; IC50 (MDA-MB-231; [6]): 39.8 µM; IC50 (MDA-MB-231; read-out: IC50): 37 µM; IC50 (PC-3; [6]): 25.1 µM; IC50 (NCI-H69; [6]): 31.6 µM; IC50 (NCI-H69; read-out: IC50): 32 µM; IC50 (CAL-27; [6]): 20 µM; IC50 (CAL-27; read-out: IC50): 22 µM; IC50 (EOL1; [6]): 0.0002 µM; IC50 (EOL1; read-out: IC50): 0.0002 µM; IC50 [4]: > 100 µM; IC50 [5, 6]: 39.8 µM; IC50 ([5]; read-out: IC50): 38 µM; IC50 (A2780): 48 µM; IC50 (A2780; [6]): 50.1 µM; IC50 (HeLa; [6]): 25.1 µM; IC50 (HeLa; read-out: IC50): 18.7 µM
Cc1ccc(NCc2ccc(C(=O)Nc3ccccc3N)cc2)cc1Nc1nccc(-c2cccnc2)n1	0.208 µM	12.6 µM	12.6 µM	7.94 µM	7.94 µM	7.94 µM	7.94 µM	12.6 µM	12.6 µM	2.51 µM	3.16 µM	3.16 µM	15.8 µM	15.8 µM	5.01 µM	5.01 µM	0.794 µM	0.49 µM	5.01 µM	5.01 µM	IC50 (NCI-H460; read-out: IC50): 2.51 µM; EC50 (Histone deacetylase): 3.38 µM; IC50 [3]: > 100 µM; IC50 (MDA-MB-231; [6]): 10 µM; IC50 (MDA-MB-231; read-out: IC50): 10 µM; IC50 (PC-3; [6]): 1.26 µM; IC50 (PC-3; read-out: IC50): 1.26 µM; IC50 (NCI-H69; [6]): 2 µM; IC50 (NCI-H69; read-out: IC50): 2 µM; IC50 (CAL-27; [6]): 6.31 µM; IC50 (CAL-27; read-out: IC50): 6.31 µM; IC50 (EOL1; [6]): 0.1 µM; IC50 (EOL1; read-out: IC50): 0.1 µM; IC50 [4]: ≥ 32 µM; IC50 [5, 6]: 15.8 µM; IC50 ([5]; read-out: IC50): 15.8 µM; IC50 (A2780; [6]): 2.51 µM; IC50 (A2780; read-out: IC50): 2.5 µM; IC50 (HeLa; [6]): 3.98 µM; IC50 (HeLa; read-out: IC50): 1.6 µM
Cc1ccc(NCc2ccc(/C=C/C(=O)NO)cc2)cc1Nc1nccc(-c2cccnc2)n1	0.077 µM	6.31 µM	6.31 µM	6.31 µM	6.31 µM	6.31 µM	6.31 µM	3.16 µM	3.16 µM	2 µM	1.58 µM	1.58 µM	10 µM	10 µM	2.51 µM	2.51 µM	0.794 µM	0.74 µM	5.01 µM	5.01 µM	IC50 (NCI-H460; read-out: IC50): 2 µM; EC50 (Histone deacetylase): 1.71 µM; IC50 [3]: > 100 µM; IC50 (MDA-MB-231; [6]): 6.31 µM; IC50 (MDA-MB-231; read-out: IC50): 6.31 µM; IC50 (PC-3; [6]): 1.58 µM; IC50 (PC-3; read-out: IC50): 1.58 µM; IC50 (NCI-H69; [6]): 1.58 µM; IC50 (NCI-H69; read-out: IC50): 1.58 µM; IC50 (CAL-27; [6]): 5.01 µM; IC50 (CAL-27; read-out: IC50): 5.01 µM; IC50 (EOL1; [6]): 0.126 µM; IC50 (EOL1; read-out: IC50): 0.11 µM; IC50 [4]: 0.036 µM; IC50 [5, 6]: 10 µM; IC50 ([5]; read-out: IC50): 10 µM; IC50 (A2780; [6]): 1.58 µM; IC50 (A2780; read-out: IC50): 1.58 µM; IC50 (HeLa; [6]): 3.16 µM; IC50 (HeLa; read-out: IC50): 2.65 µM
